Conditions: Liquid, Vibrating tube method

CCO [ethanol]
mass density [kg/m3]
Conditions	100 kPa	5000 kPa	10000 kPa	15000 kPa	20000 kPa	25000 kPa	30000 kPa	35000 kPa	40000 kPa	45000 kPa
283.15 K	798	802	805.9	809.5	813	816.4	819.7	822.8	825.9	828.8
293.15 K	789.5	793.7	797.8	801.6	805.3	808.9	812.3	815.6	818.7	821.8
303.15 K	780.9	785.3	789.6	793.7	797.5	801.3	804.8	808.2	811.5	814.7
313.15 K	772.1	776.8	781.3	785.6	789.6	793.5	797.2	800.8	804.2	807.6
323.15 K	763.3	768.3	773	777.6	781.8	785.9	789.7	793.5	797.1	800.5
333.15 K	754	759.3	764.3	769.1	773.6	777.8	781.9	785.8	789.5	793.1
343.15 K	744.5	750.1	755.5	760.5	765.3	769.8	774	778.1	782	785.7
353.15 K	–	740.6	746.4	751.7	756.7	761.5	766	770.2	774.3	778.2

Cc1ccccc1 [toluene]
mass density [kg/m3]
Conditions	100 kPa	5000 kPa	10000 kPa	15000 kPa	20000 kPa	25000 kPa	30000 kPa	35000 kPa	40000 kPa	45000 kPa
283.15 K	876.1	879.5	882.9	886.1	889.3	892.4	895.3	898.2	901	903.7
293.15 K	866.8	870.5	874.1	877.5	880.8	884	887.1	890.1	893	895.9
303.15 K	857.5	861.4	865.2	868.8	872.3	875.7	879	882.1	885.2	888.1
313.15 K	848.1	852.2	856.2	860	863.7	867.3	870.7	874	877.2	880.3
323.15 K	838.6	843	847.2	851.3	855.2	858.9	862.5	866	869.4	872.6
333.15 K	828.8	833.5	838	842.3	846.4	850.4	854.2	857.9	861.4	864.8
343.15 K	819.2	824.1	829	833.5	837.9	842.1	846	849.9	853.5	857
353.15 K	809.4	814.7	819.9	824.7	829.3	833.7	837.9	841.9	845.7	849.4

— the NIST ThermoML archive (doi:10.1016/j.fluid.2005.05.023)
